Assay results as given in patent US20230047825A1, “ANTIMICROBIAL PEPTIDES” (priority 2019, published 2023).
≈ marks a conversion by molar mass, not a printed value. Where two headings read alike, the source gives them in different places. Where a SMILES comes first, the peptide text is derived from it.

Tests used:
Klebsiella pneumoniae M6 = assay type: cell-based
[1] = tested on: Pseudomonas aeruginosa NCTC 13437; experiment: Antibacterial activity assay (broth microdilution MIC); assay type: cell-based; conditions: PA13437, in µg/mL
[2] = tested on: VR Enterococcus faecium NCTC 12204; experiment: as above; assay type: cell-based; conditions: VRE12204, in µg/mL
[3] = tested on: Acinetobacter baumannii ATCC 17978; assay type: cell-based; conditions: in µg/mL; for MIC, Stability in serum (MH): Ab17978
[4] = tested on: EMR Staphylococcus aureus-15 (EMRSA-15); assay type: cell-based; conditions: EMRSA15
[5] = tested on: Pseudomonas aeruginosa PA01; experiment: Antibacterial activity assay (broth microdilution MIC); assay type: cell-based
[6] = tested on: Escherichia coli NCTC 12923; assay type: cell-based; conditions: EC12923
[7] = Electrophysiology (Port-a-Patch patch-clamp) on model membranes
Text: The depth of insertion into each membrane is shown as the Z-position for each residue, averaged over all four peptides, relative to the phosphate group plane in the upper POPE/POPG (A/E/I) or POPG (C/G/K) bilayer leaflet in six MD simulations. Positive or negative values indicate the peptides are below or above the phosphate group. Representative current traces illustrating membrane activity when DPhPE/DPhPG (B/F/J) or DPhPG (D/H/L) model membranes are challenged with each peptide at the indicated concentration (lowest concentration that induced detectable activity). Data is for pleurocidin (A-D), pleurocidin-KR (E-H) and pleurocidin-VA (I-L). Membrane disordering by each peptide in mixed POPE/POPG bilayers is shown with data obtained from ^2H solid-state NMR (M/N) or from MD simulations where order parameters are calculated for all lipids within 4 Å of a peptide (O/P).
Molecular dynamics simulations. Simulations were carried out on either the ARCHER Cray XC30 supercomputer, or Dell Precision quad core T3400 or T3500 workstations equipped with a 1 kW Power supply (PSU) and two NVIDA PNY GeForce GTX570 or GTX580 graphics cards using Gromacs.^53 The CHARMM36 all-atom force field was used in all simulations^54-56. All simulations were run, as described previously^20 and for a total of 200 nanoseconds and repeated twice, with peptides inserted at different positions and orientations, giving a total of approximately 4.0 μs simulation. Liposome preparation and circular dichroism (CD) spectroscopy. Small unilamellar vesicles (SUV) were produced and far-UV spectra of the peptides obtained as described previously^20 using a Chirascan Plus spectrometer (Applied Photophysics, Leatherhead, UK) with samples maintained at 310 K. For liposome experiments the lipid concentration was 5 mM and a peptide to lipid molar ratio of 1:100 was maintained while the SDS micelles concentration was 20 mM with 200 μM peptide. Electrophysiology experiments (Patch-clamp). Patch clamp experiments were performed using the Port-a-Patch® (Nanion Technologies GmbH, Munich, Germany) with giant unilamellar vesicles (GUVs) composed of DPhPE/DPhPG (60:40, mol:mol) or DPhPG prepared by the electroformation method using the Nanion Vesicle Prep Pro setup (Nanion Technologies GmbH, Munich, Germany) as described previously.^20
Synergy experiments were performed following a checkerboard protocol.

human red blood cells = experiment: Haemolysis assay; conditions: red cells of human, 1 h
Method: Haemolysis assay. Haemolysis was tested by incubating titrations of AMPs in PBS with freshly collected human red blood cells for 1 hour at 37 C. Control wells were treated with 0.1% Triton-X-100 to ensure complete lysis, or PBS-only to represent no lysis. Samples were spun down to remove non-lysed cells and the OD^550 of the supernatant was measured using a Clariostar plate reader. The percentage of haemolysis was calculated as % haemolysis=(AP−AB)/(AC−AB)×100, where AP is the absorbance value for a known peptide concentration, AC is the absorbance of the 0.1% Triton-X-100 control, AB is the absorbance of the PBS control. Data presented are averages and standard error from three biological replicate experiments.
Methods: The natural AMP (termed AMP1) was modified to produce synthetic variants, AMPs 1a, 2a, 2b, 3a and 3b. Minimum inhibitory concentrations (MICs) were determined using the microbroth dilution assay with Mueller Hinton broth (MHB) or RPMI (with 5% FBS) and stability in serum was tested by conducting MICs in MHB containing 10% FBS. Synergy experiments were performed following a checkerboard protocol. Cytotoxicity was tested against HEK293 and HeLa immortalised human cell-lines using the XTT viability stain and by quantifying haemolysis of human red blood cells. Patch clamp analysis was performed using the Port-a-Patch® automated patch-clamp system on DPhPE/DPhPG (model for a Gram-negative plasma membrane) or DPhPG (Gram-positive) model membranes challenged with peptide. The murine lung infection model was performed using the agar bead model with Staphylococcus aureus strain NCTC 13616 (EMRSA-15).

[8] = tested on: VS Enterococcus faecalis NCTC 775; experiment: Antibacterial activity assay (broth microdilution MIC); assay type: cell-based
[9] = tested on: Acinetobacter baumannii AYE; assay type: cell-based; conditions: AYE
[10] = tested on: MS Staphylococcus aureus ATCC 9144; assay type: cell-based
[11] = medium and unit not given, in µg/mL
[12] = untitled table, medium/unit not given, values match RPMI of Table 2, in µg/mL
[13] = untitled table, medium/unit not given, values match RPMI of Table 2
[14] = untitled table, medium/unit inferred, values match RPMI of Table 2

CC(C)C[C@H](NC(=O)[C@H](Cc1ccc(O)cc1)NC(=O)[C@H](Cc1c[nH]cn1)NC(=O)[C@@H](NC(=O)[C@H](CC(C)C)NC(=O)[C@H](C)NC(=O)[C@H](C)NC(=O)[C@H](CCCCN)NC(=O)CNC(=O)[C@@H](NC(=O)[C@H](Cc1c[nH]cn1)NC(=O)[C@H](CCCCN)NC(=O)CNC(=O)[C@@H](NC(=O)[C@H](Cc1c[nH]cn1)NC(=O)[C@H](C)NC(=O)[C@H](C)NC(=O)[C@H](CCCCN)NC(=O)[C@H](CCCCN)NC(=O)[C@H](Cc1ccccc1)NC(=O)[C@H](Cc1ccccc1)NC(=O)[C@H](CO)NC(=O)CNC(=O)[C@H](Cc1c[nH]c2ccccc12)NC(=O)CN)C(C)C)C(C)C)[C@@H](C)O)C(N)=O [Pleurocidin, reference compound] (H-GWGSFFKKAAHVGKHVGKAALTHYL-NH2; N-terminus assumed)
MIC (Klebsiella pneumoniae M6; (MH), in µg/mL): 4
MIC (Klebsiella pneumoniae M6; (RPMI), in µg/mL): 32
MIC, Stability in serum (MH) (Klebsiella pneumoniae M6; No serum): 4 µg/mL (≈ 1.48 µM)
MIC, Stability in serum (MH) (Klebsiella pneumoniae M6; Serum (10% fetal bovine serum)): 8 µg/mL (≈ 2.95 µM)
MIC on initial panels (Klebsiella pneumoniae M6; [11]): 4
MIC (Klebsiella pneumoniae M6; [12]): 32
MIC ([1]; (MH)): 16-32
MIC ([1]; (RPMI)): >32
MIC, Stability in serum (MH) ([1]; No serum): 16
MIC, Stability in serum (MH) ([1]; Serum (10% fetal bovine serum)): 32
MIC on initial panels ([1]; medium and unit not given): 16-32
MIC [1, 13]: >32
MIC on initial panels ([2]; medium and unit not given): 16-32
MIC [2, 13]: 32
MIC ([3]; AB17978, (MH)): 1-2
MIC ([3]; AB17978, (RPMI)): 8
MIC on initial panels ([3]; AB17978, medium and unit not given): 1-2
MIC ([3]; AB17978, untitled table, medium/unit not given, values match RPMI of Table 2): 8
MIC, Stability in serum (MH) ([3]; No serum): 2
MIC, Stability in serum (MH) ([3]; Serum (10% fetal bovine serum)): 2
MIC on initial panels ([4]; medium and unit inferred): 16 µg/mL (≈ 5.9 µM)
MIC [4, 14]: 4 µg/mL (≈ 1.48 µM)
MIC ([5]; (MH)): 64 µg/mL (≈ 23.6 µM)
MIC ([5]; (RPMI)): > 32 µg/mL
MIC, Stability in serum (MH) ([5]; No serum, in µg/mL): 16
MIC, Stability in serum (MH) ([5]; Serum (10% fetal bovine serum), in µg/mL): 32
MIC on initial panels [5, 11]: 64
MIC [5, 14]: > 32 µg/mL
MIC ([6]; (MH), in µg/mL): 1-2
MIC ([6]; (RPMI), in µg/mL): 16
MIC, Stability in serum (MH) ([6]; No serum): 2 µg/mL (≈ 0.738 µM)
MIC, Stability in serum (MH) ([6]; Serum (10% fetal bovine serum)): 1 µg/mL (≈ 0.369 µM)
MIC on initial panels [6, 11]: 1-2
MIC [6, 12]: 16
Peptide concentration necessary to start membrane activity ([7]; DPhPE/DPhPG): 10 µM
Peptide concentration necessary to start membrane activity ([7]; DPhPG): 5 µM
Toxicity HC50, Peptide concentration (human red blood cells): ~400 µg/mL
MIC, Peptide concentration ([8]; Mueller-Hinton broth): 64 (NG) μg/ml
MIC on initial panels ([8]; VSE775, medium and unit not given, in µg/mL): 64
MIC ([9]; (MH), in µg/mL): 1-2
MIC ([9]; (RPMI), in µg/mL): 4-8
MIC, Stability in serum (MH) ([9]; No serum): 2 µg/mL (≈ 0.738 µM)
MIC, Stability in serum (MH) ([9]; Serum (10% fetal bovine serum)): 2 µg/mL (≈ 0.738 µM)
MIC on initial panels [9, 11]: 1-2
MIC [9, 12]: 4-8
MIC, Peptide concentration ([10]; ATCC 9144): 2 µg/mL (≈ 0.738 µM)
MIC on initial panels ([10]; MSSA9144, medium and unit inferred): 4 µg/mL (≈ 1.48 µM)
MIC ([10]; MSSA9144, untitled table, medium/unit not given, values match RPMI of Table 2, in µg/mL): 2
